Measured values from patent publication US20180185325A1, “12H-BENZO[b]XANTHEN-12-ONES, COMPOSITIONS CONTAINING, AND USES OF, SAME” (Thesan Pharmaceuticals, Inc., priority 2015, published 2018).

Columns and labels:
[1] = tested on: HepG2 cells; experiment: MTT cytotoxicity assay in HepG2 cells; type: cell-based, human
Experimental: (§1) HepG2 cells are seeded at between 1×10^4 and 2.5×10^4 cells/well in a 96-well microtitre plate. […] The formation of resorufin is quantified by fluorometry with a fluorescence plate reader. Fluorescence is determined at λex 570 nm and λem 590 nm. […] The remaining (i.e. all cells present at the beginning of analysis, since only supernatant is taken to assay EROD) live cells are subsequently utilized for the MIT cytotoxicity assay. […] The medium is carefully removed, then MIT formazan is solubilized by adding 200 μl of DMSO and subsequently mixed on a plate shaker. The absorbance is measured spectrophotometrically at 550 nm and background absorbance at 690 nm is subtracted.

[2] = tested on: human sebocyte cells; experiment: MTT cytotoxicity assay in human cultured sebocytes; type: cell-based
Experimental: (§2) Cells are seeded at between 1×10^4 and 2.5×10^4 cells/well in a 96-well microtitre plate. […] The formation of resorufin is quantified by fluorometry with a fluorescence plate reader. Fluorescence is determined at λex 570 nm and […]. The amount of resorufin is calculated from a standard curve generated using 0 to 1 μM resorufin in water at 34 log dilutions. The remaining (i.e. all cells present at the beginning of analysis, since only supernatant is taken to assay EROD) live cells are subsequently utilized for the MIT cytotoxicity assay. MIT is made up in serum-free medium at 5 mg/ml. then added to the cells giving a final concentration of 10% (0.5 mg/ml MIT final) then incubated for 2 h. The medium is carefully removed, then MTT formazan is solubilized by adding 200 μl of DMSO and subsequently mixed on a plate shaker. The absorbance is measured spectrophotometrically at 550 nm and background absorbance at 690 nm is subtracted. A standard curve generated using MTT formazan (dissolved in DMSO) from 0-200 μM (0, 2, 5, 10, 20, 50, 100, 200 μM) is used to calculate the final experimental values which are then expressed as (μmol resorufin/mol MIT formazan) or as fold-induction compared to solvent.

[3] = tested on: CYP1A1; experiment: EROD assay in human cultured sebocytes; type: cell-based; conditions: cultured sebocytes, probe 7-ethoxyresorufin (8 μM)
Experimental: as §2

[4] = tested on: CYP1A1; experiment: EROD assay in HepG2 cells (cleavage of 7-ethoxyresorufin to resorufin); type: cell-based, human; conditions: human, probe 7-ethoxyresorufin (8 μM)
Experimental: as §1

[5] = tested on: CYP1A1 mRNA; experiment: CYP1A1 mRNA assay in HepG2 cells (RT-PCR); type: cell-based, human; conditions: 10 uM
Experimental: HepG2 cells (American Type Culture Collection (ATCC), Manassas, Va.) were cultured using Eagle's minimal essential medium (ATCC), supplemented with 10% fetal calf serum (Invitrogen Life Technologies). […] Cells were plated at a seeding density of 3.8×10^5 cells per well on 6-well plates (Corning Costar, NY, U.S.A.). Cells were allowed to attach for 24 h in a 37° C. humidified incubator with a 5% CO2 atmosphere. Media was replaced with that containing test agents or vehicle (0.1% dimethylsulphoxide) and cells incubated for a further 24 h. Following the 24 h incubation with test agents, media was removed and RNA prepared using the Purelink RNA mini kit (ThermoFischer, Carlsbad, Calif.). Nucleic acid concentration was determined using a Nanodrop™ spectrophotometer (ThermoScientific) by measuring the OD at 260 nm and RNA purity was evaluated using the OD 260/280 nm ratio. 1 μg RNA was reverse transcribed using SuperScript®VILO™ (ThermoFischer) with cDNA synthesis performed using the following parameters: 10 min at 25° C., 2 h at 42° C., 5 min at 85° C. (deactivation) followed by a completion temperature of 4° C. […] Each sample (1 μl) was pipetted into a 96-well optical reaction plate (Applied Biosystems, Carlsbad, Calif.). […] Results were analyzed by calculating the fold change of CYP1A1 mRNA levels normalized to 18S rRNA (ΔΔCt) in compound treated cells or tissues compared to vehicle levels.

[6] = tested on: sebaceous glands; experiment: Mouse ear assay for sebaceous gland prevalence; type: in vivo, C57BL/6J mice; conditions: topical 1% solution in DMSO:acetone 50:50, twice a day for five days, vs controls
Experimental: C57BL/6J male mice (Harlan Models), approximately 4-5 weeks of age, body weight 20-30 g, were acclimatized (individually housed) for 5 days in a 12 hour light/dark cycle standard laboratory environment (T=20-24° C., relative humidity 30-70%, 15-20 air changes per hour) with access to water and standard rodent chow (Harlan Tekiad 2014C supplied by Harlan Laboratories Models, S.L.) ad libitum. Animals were anesthetized with isoflurane and the test article (80 ul, 1% solution in DMSO:acetone 50:50) was administered to the outer surface of each of the ears of between 2 and 5 mice twice a day for five days by dermal application using a micropipette tip (a little volume of the solution was also applied on the inner side of the ears). All animals were monitored daily for reaction to the treatment, signs of illness, and behavioral changes. Body weights were recorded before the first administration and immediately prior to sacrifice. Approximately 12 to 16 hours after the final administration on day 5 the mice were sacrificed by i.p. injection of sodium pentobarbital (200 mg/kg) and the ears were collected. Each ear was sectioned into two halves. For each animal, one-half of one ear was fixed, in neutral phosphate-buffered 4% formaldehyde solution (4% formalin). This trimmed section of the ear was then processed, embedded in paraffin wax and stored at room temperature. […]

[7] = tested on: CYP1A1 enzyme; experiment: EROD assay in human cultured sebocytes; type: cell-based; conditions: 10 uM, 24 h
Experimental: as §2

[8] = tested on: CYP1A1 enzyme; experiment: EROD assay in HepG2 cells (cleavage of 7-ethoxyresorufin to resorufin); type: cell-based, human; conditions: 10 uM, 24 h
Experimental: as §1

[9] = target: T1, Aryl Hydrocarbon Receptor (Homo sapiens, UniProt P35869); experiment: AhR activation luciferase reporter in Hep G2-plox-XRE TATA-Luc cells; type: cell-based; conditions: 24 h, 1-10 uM
T1 construct: endogenous in cells; host or cells: Hep G2 cells stably transduced with the lentivector plox-XRE TATA-Luc (reporter only)
T1 sequence (P35869 11-848): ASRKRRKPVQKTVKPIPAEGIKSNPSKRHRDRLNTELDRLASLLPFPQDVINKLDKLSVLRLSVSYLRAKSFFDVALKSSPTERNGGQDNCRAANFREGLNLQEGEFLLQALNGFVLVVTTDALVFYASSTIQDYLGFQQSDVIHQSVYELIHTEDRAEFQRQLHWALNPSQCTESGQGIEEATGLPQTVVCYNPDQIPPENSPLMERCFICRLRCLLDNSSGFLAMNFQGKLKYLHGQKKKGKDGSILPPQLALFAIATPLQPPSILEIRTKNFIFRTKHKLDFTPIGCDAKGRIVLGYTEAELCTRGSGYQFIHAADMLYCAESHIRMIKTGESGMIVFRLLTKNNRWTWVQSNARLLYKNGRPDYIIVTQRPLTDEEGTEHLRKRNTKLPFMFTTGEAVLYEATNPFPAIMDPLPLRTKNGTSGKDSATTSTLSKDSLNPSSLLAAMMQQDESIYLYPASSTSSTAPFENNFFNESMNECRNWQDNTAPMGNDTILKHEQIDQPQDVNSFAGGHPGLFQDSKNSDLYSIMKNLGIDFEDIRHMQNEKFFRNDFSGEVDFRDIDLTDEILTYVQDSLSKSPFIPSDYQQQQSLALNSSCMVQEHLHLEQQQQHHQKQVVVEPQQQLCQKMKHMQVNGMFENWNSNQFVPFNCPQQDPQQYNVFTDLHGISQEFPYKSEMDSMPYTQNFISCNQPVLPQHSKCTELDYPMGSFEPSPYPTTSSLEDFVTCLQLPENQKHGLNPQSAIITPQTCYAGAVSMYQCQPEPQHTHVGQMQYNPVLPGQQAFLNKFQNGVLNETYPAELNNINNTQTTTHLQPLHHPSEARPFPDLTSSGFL
Experimental: AhR activation is measured in HEP G2 cells (hepatocytes, Hep G2 is a human liver carcinoma cell line) stably transfected with the lentivector plox-XRE TATA-Luc. The Hep G2 cells are cultured in a growing media consisting of DMEM (Gibco)+10% fetal bovine serum+penicillin+streptomycin. At D0, the Hep G2 cells are seeded into 12-well plates in proportions of approximately 30,000 cells/cm^2. After 24 h, the medium is replaced with fresh medium and the cells are transduced with the lentivector plox-XRE TATA-Luc. After 48 h, the cells are subcultured and maintained in culture, and tested for their reactivity to 3-phenyl-1H-benzo[f]chromen-1-one. The tests are carried out using the luciferase reporter assay system kit from Promega. At D0, the cells are seeded at a density of approximately 60% confluence, and then treated, at D1, with the test substance diluted to various concentrations in the appropriate culture medium. At […], the cells are lysed in CLB buffer, and the lysate is clarified by centrifugation for 5 min at 10 000 g. The luciferase activity is measured in 20 microliters of lysate as recommended by the supplier, using the luminoskan luminometer (Thermo). […] Data is processed and EC50's can be calculated from standard data monitoring software.

[10] = target: T1, Aryl Hydrocarbon Receptor; experiment: AhR activation luciferase reporter in NHK-plox-XRE TATA-Luc cells; type: cell-based; conditions: 24 h, 1-10 uM
Experimental: AhR activation is also measured in human skin cells such as normal human keratinocytes (NHK cells) or A431 epidermoid cells stably transfected with the lentivector plox-XRE TATA-Luc. The NHK cells are cultured in a specific keratinocyte SFM medium (Gibco)+penicillin+streptomycin. At D0, the NHK cells are seeded into 6-well plates in a proportion of approximately […]. After 24 h, the medium is replaced with fresh medium and the cells are transduced with the lentivector plox-XRE TATA-Luc. After 48 h, the cells are subcultured and maintained in culture, and tested for their reactivity to 3-phenyl-1H-benzo[f]chromen-1-one. The tests are carried out using the luciferase reporter assay system kit from Promega. At D0, the cells are seeded at a density of approximately 60% confluence, and then treated, at D1, with the test substance diluted to various concentrations in the appropriate culture medium. At D2, the cells are lysed in CLB buffer, and the lysate is clarified by centrifugation for 5 min at 10 000 g. The luciferase activity is measured in 20 microliters of lysate as recommended by the supplier, using the luminoskan luminometer (Thermo). […] Data is processed and EC50's can be calculated from standard data monitoring software.

Structure (SMILES) | EC50 at 24 h [3] [µM] | EC50 at 24 h [4] [µM] | Toxicity threshold ([1]; human, 24 h) [µM] | Toxicity threshold [2] [µM] | also measured
COc1cccc2c(=O)c3c(ccc4ccccc43)oc12 [Compound O] |  |  | >100 | >100 | 
O=c1cc(-c2ccccc2)oc2ccc3ccccc3c12 [Compound D, 3-Phenyl-1H-benzo[f]chromen-1-one, reference compound] |  |  |  | 30 | CYP1A1 mRNA fold change from vehicle ([5]; 24 h incubation, normalized to 18S rRNA): 596 fold; % change vs. TCDD EROD (Sebs) at 10 uM [7]: 17%; % change vs. TCDD EROD (HepG2) at 10 uM [8]: 19%; Toxicity threshold ([1]; HepG2 cells, MTT): >50 µM
O=c1cc(-c2ccccc2)oc2ccc3ccccc3c12 [3-phenyl-1H-benzo[f]chromen-1-one, 3-Phenyl-1H-benzo[f]chromen-1-one] |  |  |  |  | induction of the luciferase activity [9]: a significant induction; induction of luciferase activity [10]: a significant induction
COc1ccc2c(=O)c3c(ccc4ccccc43)oc2c1 [Compound M] |  | 3 | >30 | 50 | 

Further lines, with some results ahead:

EC50 at 24 h [3] [µM] | EC50 at 24 h [4] [µM] | Structure (SMILES) | Toxicity threshold ([1]; human, 24 h) [µM] | Toxicity threshold [2] [µM] | also measured
0.5 | 0.6 | O=c1c2cc(O)ccc2oc2ccc3ccccc3c12 [Compound L] | >100 | >50 | 
0.5 | 0.5 | COc1ccc2oc3ccc4ccccc4c3c(=O)c2c1 [Compound K] | >100 | >50 | 
0.2 | 2.5 | O=c1c2ccccc2oc2ccc3ccccc3c12 [Compound C] | >30 | >30 | induction of CYP1A1 mRNA (in words) [5]: potent inducer; number of differentiated sebocytes [6]: a reduction; number of sebaceous glands [6]: a clear reduction
0.2 | 2 | O=c1c2cccc(O)c2oc2ccc3ccccc3c12 [Compound P] | >100 | >100 | 
 | 1.5 | O=c1c2ccc(O)cc2oc2ccc3ccccc3c12 [Compound N] | >30 | >50 | 
